The text below walks through data of PMC3746831 (Pharmaceutical research, 2013).

Broadly, the EC50 is the concentration that produces a half-maximal response. A word on the EC90: it is the point of the concentration-response curve where the effect stands at 90%. In general, CC50 refers to the concentration at which the toxic effect on the cells reaches its halfway point. A higher CC50 goes with better tolerance by the cells.

Data set [1] relates to Epstein-Barr Virus (EBV), Akata. The data set can be described thus: DNA hybridization assay for EBV in Akata cells. Type of data set: cell-based. To be noted: 72 h; for EC50: read-out: EBV EC50; for EC90: read-out: EBV EC90.
In data set [2] the test system is Herpes Simplex Virus 2 (HSV-2), MS strain. The data set can be described thus: Plaque reduction assay for HSV-2 in HFF cells. To be noted: for EC50: read-out: HSV-2 EC50; for EC90: read-out: HSV-2 EC90. Type of data set: cell-based.
The test system of another data set is HFF cells. The data set can be described thus: in vitro. Format: cell-based, human.
For the next data set, the system named is HCEC cells. The data set can be described thus: Cellular uptake study on HCEC cells. Format: cell-based, human. The conditions noted are these: sodium free DPBS, 37°C, relative to uptake with sodium.
In data set [3] the test system is Human Cytomegalovirus (HCMV), AD169 strain. The data set is described as follows: Plaque reduction assay for HCMV in HFF cells. Type of data set: cell-based. To be noted: for EC50: read-out: HCMV EC50, control is GCV; for EC90: read-out: HCMV EC90, control is GCV. On the technique in general: Plaque reduction counts the foci of infection that form in a cell layer.

The subject of a further data set is Akata cells. The data set is described as follows: in vitro. Format: cell-based, human.
Data set [4] is described as follows: Enzymatic hydrolysis in cornea homogenate. The conditions noted are these: 100 μM prodrug, 0.5mg/mL protein, 34°C.
In data set [5] the test system is Herpes Simplex Virus 1 (HSV-1), E-377 strain. The data set is described as follows: Plaque reduction assay for HSV-1 in HFF cells. Format: cell-based. To be noted: for EC50: read-out: HSV-1 EC50; for EC90: read-out: HSV-1 EC90.
Data set [6] can be described thus: in vitro. Type of data set: cell-based, human. To be noted: human.
Data set [7] in a line: in vitro. Format: cell-based, human. The conditions noted are these: human. This is another data set of the same source.
Data set [8] is described as follows: Enzymatic hydrolysis in lens homogenate. The conditions noted are these: 100 μM prodrug, 34°C.
Data set [9] can be described thus: Enzymatic hydrolysis in iris-ciliary body. To be noted: 100 μM prodrug, 34°C.
[10] abbreviates: Akata cells, viral DNA accumulation.
Setting [11] is: human gammaherpesvirus 4, Akata.

Read-outs that look alike come from different tables or passages of the source. Some results are limits rather than exact numbers.

In the case of `CCCCCCC(CCCCCCCCCCC(=O)OCCOCn1cnc2c(=O)[nH]c(N)nc21)OC(=O)CCCC[C@@H]1SC[C@@H]2NC(=O)N[C@@H]21` (stereo partly shown) [B-12HS-ACV, Biotin-12hydroxystearicacid-acyclovir], the EC50 in [1] (setting [10]) was 37.2 µM; in data set [2] (MS strain, HFF cells), less than 0.096 µM; in data set [3], greater than 300 µM; in [5] (E-377 strain, HFF cells) it was less than 0.096 µM. The concentration for an effect of 90% (EC90) in data set [1] (setting [10]) was greater than 60 µM; in data set [2] (MS strain, HFF cells), 4.65 µM; in [3], greater than 300 µM; in data set [5] (E-377 strain, HFF cells), 0.42 µM. In addition, the 50% cytotoxic concentration (CC50) is greater than 300 µM with HFF cells and greater than 60 µM in the data set with Akata cells. In addition, the “Uptake in the presence of a sodium free buffer (reduced to)” value with HCEC cells is roughly 41%. For the same molecule, the “Cornea Rate constant” value in data set [4] is given as 1.78 ± 0.29 k×10^3 min^−1 mg protein^-1.
Take `CCCCCCC(O)CC=CCCCCCCCC(=O)OCCOCn1cnc2c(=O)[nH]c(N)nc21` (stereo not shown) [R-ACV, Ricinoleicacid-acyclovir]: the EC50 in data set [1] (setting [10]) was 10.7 µM; in data set [2] (MS strain, HFF cells), 3.4 µM; in [3], 46.5 µM; in data set [5] (E-377 strain, HFF cells), 8.3 µM. Moreover, the concentration for an effect of 90% (EC90) in data set [1] (setting [10]) is 49.5 µM; in data set [2] (MS strain, HFF cells), 8.89 µM; in data set [3], greater than 300 µM; in [5] (E-377 strain, HFF cells), 168 µM. Moreover, the half-maximal cytotoxic concentration (CC50) is greater than 300 µM in the data set with HFF cells and greater than 60 µM in the data set on Akata cells.
As to `Nc1nc2c(ncn2COCCO)c(=O)[nH]1` [ACV, Acyclovir, reference compound], the concentration giving a half-maximal response (EC50) in data set [1] (setting [11]) was determined as 12.4 µM; in data set [2] (Human alphaherpesvirus 2, HFF), 5.98 µM; in data set [5] (Human alphaherpesvirus 1, HFF) it was 3.43 µM. Further, the EC90 in data set [1] (setting [11]) was 67.3 µM; in data set [2] (Human alphaherpesvirus 2, HFF), greater than 100 µM; in data set [5] (Human alphaherpesvirus 1, HFF), greater than 100 µM. For the same molecule, the cytotoxic concentration (CC50) in “in vitro [6]”, in the data set with HFF cells (human) and in the data set “in vitro [7]” was greater than 100 µM each time.
`Nc1nc(O)c2ncn(COC(CO)CO)c2n1` [GCV, Ganciclovir, reference compound]: in “in vitro [6]”, the half-maximal cytotoxic concentration (CC50) was greater than 100 µM.
On to `CCCCCCC(O)CCCCCCCCCCC(=O)OCCOCn1cnc2c(=O)[nH]c(N)nc21` (stereo not shown) [12HS-ACV, 12hydroxystearicacid-acyclovir], for which the EC50 is 35.8 µM in [1] (setting [10]); 0.41 µM in data set [2] (MS strain, HFF cells); 101 µM in data set [3]; 1.16 µM in data set [5] (E-377 strain, HFF cells). Further, the EC90 in data set [1] (setting [10]) is 55 µM; in data set [2] (MS strain, HFF cells) it was greater than 300 µM; in data set [3] it was 137 µM; in data set [5] (E-377 strain, HFF cells), 6.24 µM. In addition, the “Increase in antiviral activity against HSV-2 relative to ACV (by EC50)” value in data set [2] (from EC50 values) is given as greater than 15 fold. In the data set with Akata cells, this molecule returned a half-maximal cytotoxic concentration (CC50) of 47.3 µM. The “Increase in antiviral activity against HSV-1 relative to ACV (by EC50)” value in data set [5] (from EC50 values) is “greater than 3 fold”.
On to `Nc1nc2c(ncn2COCCOC(=O)CCCC[C@@H]2SC[C@@H]3NC(=O)N[C@@H]32)c(=O)[nH]1` [B-ACV, Biotin-acyclovir], for which, in data set [1] (setting [10]), the EC50 was determined as 22.3 µM and the EC90 is 52.8 µM. For the same molecule, the “Degradation in lens homogenate (in words)” value in [8] was “complete degradation”. In data set [2] (MS strain, HFF cells), the EC50 is greater than 300 µM and the EC90 is greater than 300 µM. Further, the “Uptake in the presence of a sodium free buffer (reduced to)” value in the data set on HCEC cells is recorded as roughly 45%. The “Degradation in ICB homogenate (in words)” value in data set [9] is recorded as “complete degradation”. In the data set on Akata cells, this molecule showed a CC50 greater than 60 µM. In [4], the “Cornea Half-life” value worked out at 5.80 ± 0.49 h and the “Cornea Rate constant” value is recorded as 1.99 ± 0.21 k×10^3 min^−1 mg protein^-1. For the same molecule, in [5] (E-377 strain, HFF cells), the EC50 was 182 µM and the 90% effect concentration (EC90) is greater than 300 µM.
